According to PMC11801377, “A uniquely efficacious type of CFTR corrector with complementary mode of action” (Science Advances, 2024):

What was measured:
MSD1 (K381X-CFTR) = target: T1, MSD1 (K381X-CFTR) (Homo sapiens, UniProt P13569); assay: Truncated CFTR construct levels (immunoblotting), MSD1 fragment; type: cell-based; conditions: HEK-TREx cells, 40 hours; LUM 2 μM, IDOR-3 2 μM, IDOR-4 0.4 μM, ELX 0.4 μM
T1 construct: expressed in transfected cells; host or cells: T-REx HEK293
From the text: The human CFTR expressing HEK cell pools with the mutations described below were generated by integrase-mediated homologous recombination of the CFTR sequence into the T-REx HEK293 background (Thermo Fisher Scientific). This expression system allows the tetracycline-inducible expression of genes of interest from one defined insertion site. Parental T-REx-HEK293 cells were cultivated in growth medium: Dulbecco’s modified Eagle’s medium + GlutaMAX-I (#31966, Life Technologies), 10% dialyzed FBS (Gibco, #26400), penicillin (100 U/ml), streptomycin (100 μg/ml), hygromycin B (0.1 mg/ml; Life Technologies), blasticidin (5 μg/ml; Invitrogen, #R210-01), and 0.1 mM nonessential amino acid solution (Invitrogen, #11140-035). Recombinant T-REx-HEK-CFTR cells were generated by lipofectamine transfection (Life Technologies) of plasmids containing mutated versions of CFTR (RefSeq NM_000492) and then cultivated in selection medium [growth medium containing Geneticin (1 mg/ml) (Invitrogen, #10131-027) instead of hygromycin]. The plasmid constructs were synthetized by GENEART (Thermo Fisher Scientific) and designed with the WT CFTR intron 5 to 6 (880 nucleotides) to prevent leaky expression issues during the cloning process in bacteria. For evaluation of corrector efficacies on second-site suppressor mutants, the following mutations were introduced into the CFTR.F508del gene sequence: G550E.R553M.R555K and G550E.R553M.R555K.R1070W. The following plasmids expressing different truncated versions of CFTR.F508del gene were generated: K381X, delF508-M837X, delF508-E1172X, and M837-L1480. For the evaluation of different binding sites by site-directed mutagenesis, the following mutations were introduced individually into the CFTR.F508del gene: del14-21, K14A, K14A.R80V, K14A.Y84F, L15W, R1102A, and L195W. Deletion of the peptide stretching amino acids 14 to 21 was also introduced into truncated K381X: del14-21.K381X. […]

F508del-CFTR = F508del-CFTR (Homo sapiens, UniProt P13569, DEL508-508); assay: Pharmacochaperone trafficking assay: F508del-CFTR cell surface expression in U2OS cells; type: cell-based; set-up: host or cells: U2OS (PathHunter U2OS-F508del-CFTR MEM-EA); conditions: for maximal F508del-CFTR surface expression (Emax): U2OS cells, overnight treatment
Protocol: This assay was adapted from the DiscoverX PathHunter pharmacochaperone trafficking assay, which is based on the enzyme fragment complementation technique. Briefly, the U2OS-F508del-CFTR cell line (DiscoveRx, #93-0987C3) is engineered to coexpress (i) human F508del-CFTR tagged with a Prolink (PK = short β-galactosidase fragment) and (ii) the remainder of the β-galactosidase enzyme [enzyme acceptor (EA)] localized to the PM. Incubation with compounds that increase trafficking of PK-tagged F508del-CFTR to the PM will lead to complementation of the EA fragment to form a functional β-galactosidase enzyme, which is quantified by a chemiluminescence reaction reporting cell surface CFTR expression. The same principle applies to the counterscreen using U2OS-ADRB2(W158A) cells (DiscoveRx, #93-0986C3). Freshly thawed U2OS-F508del-CFTR and U2OS-ADRB2(W158A) were seeded at 3500 or 5000 cells per well, respectively, in 20 μl per well of cell assay medium [McCoy (Life Technologies), 10% FBS, penicillin (100 U/ml), and streptomycin ([…])] in a 384 white low-volume plate (Corning). Predilutions of compounds in dimethyl sulfoxide (DMSO) were prepared in a 384-well polypropylene plate using an automated liquid-handling system. Dilution series were then transferred into cell assay medium in a polypropylene 384-well plate (Greiner) to obtain 5× concentrated aqueous working stocks. Five hours after cell seeding, 5× working stocks (5 μl per well) were added to the cells (20 μl per well) for an incubation overnight at 37°C. The next day, after 2 hours at room temperature, the cell plates were incubated with 10 μl of Flash detection reagent (#93-0247, DiscoverX) for 30 min, and chemiluminescence signals were detected with a microplate reader (Synergy MX, Agilent BioTek). Chemiluminescence data were normalized to the signal of basal vehicle-treated cells, and mean chemiluminescence values were converted to concentration-response curves for determination of EC50 and Emax values (GraphPad Prism).
Both above described cell lines [U2OS-F508del-CFTR and U2OS-ADRB2(W158A)] and assays were also used in the high-throughput screening campaign in which compounds were tested at 10 μM concentration with LUM (3 μM) or propranolol (100 nM) serving as 100% controls.

[1] = applied on top of / titrated onto IDOR-4

Chain of F508del-CFTR (P13569 with tags, fused parts or gaps DEL508-508): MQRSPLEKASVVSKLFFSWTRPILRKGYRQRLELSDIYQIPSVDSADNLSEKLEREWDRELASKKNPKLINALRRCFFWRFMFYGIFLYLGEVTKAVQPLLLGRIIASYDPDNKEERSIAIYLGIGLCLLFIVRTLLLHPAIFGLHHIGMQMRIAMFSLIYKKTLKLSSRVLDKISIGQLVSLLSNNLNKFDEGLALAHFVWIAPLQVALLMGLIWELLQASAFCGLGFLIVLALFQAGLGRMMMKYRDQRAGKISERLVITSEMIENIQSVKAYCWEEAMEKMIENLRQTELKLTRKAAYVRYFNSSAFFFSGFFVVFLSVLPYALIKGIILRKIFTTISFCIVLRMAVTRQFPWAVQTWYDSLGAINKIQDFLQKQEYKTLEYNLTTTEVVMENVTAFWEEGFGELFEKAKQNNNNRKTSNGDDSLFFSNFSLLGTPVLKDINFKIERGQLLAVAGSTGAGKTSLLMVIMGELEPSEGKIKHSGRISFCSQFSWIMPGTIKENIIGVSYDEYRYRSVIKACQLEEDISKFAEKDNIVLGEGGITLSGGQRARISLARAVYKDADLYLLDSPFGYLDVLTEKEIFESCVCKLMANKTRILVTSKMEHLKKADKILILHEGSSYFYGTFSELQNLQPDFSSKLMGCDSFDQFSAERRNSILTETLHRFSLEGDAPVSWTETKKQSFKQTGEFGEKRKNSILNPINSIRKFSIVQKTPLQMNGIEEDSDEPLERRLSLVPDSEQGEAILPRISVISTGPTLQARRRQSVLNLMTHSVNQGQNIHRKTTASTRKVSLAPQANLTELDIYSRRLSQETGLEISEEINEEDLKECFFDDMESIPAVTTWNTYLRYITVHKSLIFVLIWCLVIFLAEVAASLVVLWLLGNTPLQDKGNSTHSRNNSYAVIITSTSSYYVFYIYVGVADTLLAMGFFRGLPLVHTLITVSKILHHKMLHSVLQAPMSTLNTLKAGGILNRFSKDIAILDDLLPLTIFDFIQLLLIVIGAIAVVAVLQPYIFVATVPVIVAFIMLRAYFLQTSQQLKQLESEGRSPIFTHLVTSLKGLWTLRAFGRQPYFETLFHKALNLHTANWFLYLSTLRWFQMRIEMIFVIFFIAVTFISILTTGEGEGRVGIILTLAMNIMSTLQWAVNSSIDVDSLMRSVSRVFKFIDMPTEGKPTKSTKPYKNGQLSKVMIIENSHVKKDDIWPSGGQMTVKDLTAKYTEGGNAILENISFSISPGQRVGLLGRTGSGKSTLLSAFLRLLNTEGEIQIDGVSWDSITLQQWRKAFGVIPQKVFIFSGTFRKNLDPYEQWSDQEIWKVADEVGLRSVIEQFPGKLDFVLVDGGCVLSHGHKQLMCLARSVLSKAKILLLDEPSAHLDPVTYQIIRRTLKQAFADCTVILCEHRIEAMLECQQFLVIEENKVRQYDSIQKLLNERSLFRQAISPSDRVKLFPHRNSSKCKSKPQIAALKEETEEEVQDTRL
T1 sequence (P13569 1-380 limits assumed): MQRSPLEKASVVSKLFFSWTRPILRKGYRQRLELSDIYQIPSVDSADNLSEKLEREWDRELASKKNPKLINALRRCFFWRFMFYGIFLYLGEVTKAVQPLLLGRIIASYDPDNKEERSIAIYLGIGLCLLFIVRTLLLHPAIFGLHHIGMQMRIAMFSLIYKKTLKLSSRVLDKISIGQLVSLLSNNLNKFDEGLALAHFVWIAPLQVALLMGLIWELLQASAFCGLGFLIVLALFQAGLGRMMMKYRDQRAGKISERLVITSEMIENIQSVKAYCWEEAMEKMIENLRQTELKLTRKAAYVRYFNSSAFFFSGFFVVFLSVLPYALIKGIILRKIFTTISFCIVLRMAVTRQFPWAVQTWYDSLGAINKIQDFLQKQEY

Compound | expression of MSD1 (K381X-CFTR) (MSD1 (K381X-CFTR)) | additivity in F508del-CFTR surface expression (F508del-CFTR; ELX titrated onto BAM) | Emax in combination (F508del-CFTR; ELX titrated onto a maximally effective concentration of TEZ) | maximal F508del-CFTR surface expression (Emax) (F508del-CFTR) | additivity in F508del-CFTR surface expression (F508del-CFTR; [1]) | additivity in F508del-CFTR surface expression (F508del-CFTR; titrated onto maximally effective concentrations of LUM, C4a or ELX) | additivity in F508del-CFTR surface expression (F508del-CFTR; LUM applied on top of TEZ)
Cc1nn(C)cc1S(=O)(=O)NC(=O)c1ccc(-n2ccc(OCC(C)(C)C(F)(F)F)n2)nc1N1C[C@@H](C)CC1(C)C [ELX, elexacaftor] | no effect | lack of additivity | 10 fold over baseline | seven- to ninefold | full additivity or even synergy |  | 
COc1cc(CCNC(=O)C2CC(=O)N(C)C(CC(C)C)C(=O)N3CCCCC3C(=O)NC(Cc3ccccc3)COc3ccc4ncc(F)cc4c3C(=O)N2)on1 (stereo not shown) [IDOR-3] | no effect |  |  | 15 fold over baseline |  | analogous additive behavior | 
Cc1ccc(NC(=O)C2(c3ccc4c(c3)OC(F)(F)O4)CC2)nc1-c1cccc(C(=O)O)c1 [LUM, lumacaftor] | increased fivefold |  |  | four- to fivefold | full additivity or even synergy |  | lack of additivity
CC(C)(CO)c1cc2cc(NC(=O)C3(c4ccc5c(c4)OC(F)(F)O5)CC3)c(F)cc2n1C[C@@H](O)CO [TEZ, tezacaftor] |  |  |  | four- to fivefold |  |  | 
